Patent publication US20190040083A1 (priority 2016, published 2019)

Tests used:
[1] = test system: Staphylococcus aureus ATCC 29213; assay: microbe, parasite or virus in culture; format: cell-based; details: ATCC29213
[2] = test system: Streptococcus pneumoniae ATCC 49619; assay: microbe, parasite or virus in culture; format: cell-based; details: ATCC49619
[3] = test system: Klebsiella pneumoniae ATCC 700603; assay: microbe, parasite or virus in culture; format: cell-based; details: ATCC700603
[4] = test system: Haemophilus influenzae ATCC 49247; assay: microbe, parasite or virus in culture; format: cell-based; details: ATCC49247
[5] = test system: Acinetobacter baumannii NCTC 13420; assay: microbe, parasite or virus in culture; format: cell-based; details: NCTC13420
[6] = test system: Enterobacter cloacae NCTC 13406; assay: microbe, parasite or virus in culture; format: cell-based; details: NCTC13406
[7] = test system: Acinetobacter baumannii ATCC 19606; assay: microbe, parasite or virus in culture; format: cell-based; details: ATCC19606
[8] = test system: human hepatic cell line (HepG2 ATCC HB-8065); assay: cells; details: HepG2, 24 h, read-out: IC50 (μg/mL) HepG2
[9] = test system: Escherichia coli ATCC 25922; assay: microbe, parasite or virus in culture; format: cell-based; details: ATCC25922
[10] = test system: Pseudomonas aeruginosa ATCC 27853; assay: microbe, parasite or virus in culture; format: cell-based; details: ATCC27853

O=C1COc2ccc(N3C(=O)O[C@H]4CN(CCCn5c(=O)ccc6ccccc65)CC[C@H]43)nc2N1 (relative stereo) [Compound 2, rel-1-{3-[(3aR*,7aS*)-2-oxo-1-{3-oxo-2H,3H,4H-pyrido[3,2-b][1,4]oxazin-6-yl}-octahydro-[1,3]oxazolo[5,4-c]pyridin-5-yl]propyl}-1,2-dihydroquinolin-2-one]
10 to 100 µg/mL: MIC [3] | MIC [6] | IC50 [8] | MIC [10]
< 1 µg/mL: MIC [1] | MIC [2] | MIC [5]
1 to 10 µg/mL: MIC [4] | MIC [7] | MIC [9]

N#Cc1ccc2ccc(=O)n(CCCN3CC[C@@H]4[C@H](C3)OC(=O)N4c3ccc4c(n3)NC(=O)CO4)c2c1 (relative stereo) [Compound 6, rel-1-{3-[(3aR*,7aS*)-2-oxo-1-{3-oxo-2H,3H,4H-pyrido[3,2-b][1,4]oxazin-6-yl}-octahydro-[1,3]oxazolo[5,4-c]pyridin-5-yl]propyl}-2-oxo-1,2-dihydroquinoline-7-carbonitrile]
10 to 100 µg/mL: MIC [3] | IC50 [8] | MIC [10]
1 to 10 µg/mL: MIC [4] | MIC [6] | MIC [7]
< 1 µg/mL: MIC [1] | MIC [2] | MIC [5] | MIC [9]

COc1ccc2ccc(=O)n(CCCN3CC[C@H]4[C@@H](C3)OC(=O)N4c3ccc4c(n3)NC(=O)CO4)c2n1 (relative stereo) [Compound 7, rel-1-{3-[(3aR*,7aS*)-2-oxo-1-{3-oxo-2H,3H,4H-pyrido[3,2-b][1,4]oxazin-6-yl}-octahydro-[1,3]oxazolo[5,4-c]pyridin-5-yl]propyl}-7-methoxy-1,2-dihydro-1,8-naphthyridin-2-one]
1 to 10 µg/mL: MIC [6]
10 to 100 µg/mL: MIC [3] | IC50 [8] | MIC [10]
< 1 µg/mL: MIC [1] | MIC [2] | MIC [4] | MIC [5] | MIC [7] | MIC [9]

COc1ccc2ccc(=O)n(CCCN3CC[C@@H]4[C@@H](C3)OC(=O)N4c3ccc4c(n3)NC(=O)CO4)c2n1 (relative stereo) [Compound 9, rel-1-{3-[(3aR*,7aR*)-2-oxo-1-{3-oxo-2H,3H,4H-pyrido[3,2-b][1,4]oxazin-6-yl}-octahydro-[1,3]oxazolo[5,4-c]pyridin-5-yl]propyl}-7-methoxy-1,2-dihydro-1,8-naphthyridin-2-one]
10 to 100 µg/mL: MIC [3] | IC50 [8]
< 1 µg/mL: MIC [1] | MIC [2] | MIC [4] | MIC [5] | MIC [7] | MIC [9]
1 to 10 µg/mL: MIC [6] | MIC [10]

N#Cc1ccc2ccc(=O)n(CCCN3CC[C@@H]4[C@@H](C3)OC(=O)N4c3ccc4c(n3)NC(=O)CO4)c2c1 (relative stereo) [Compound 10, rel-1-{3-[(3aR*,7aR*)-2-oxo-1-{3-oxo-2H,3H,4H-pyrido[3,2-b][1,4]oxazin-6-yl}-octahydro-[1,3]oxazolo[5,4-c]pyridin-5-yl]propyl}-2-oxo-1,2-dihydroquinoline-7-carbonitrile]
10 to 100 µg/mL: MIC [3] | IC50 [8]
< 1 µg/mL: MIC [1] | MIC [2] | MIC [4] | MIC [5] | MIC [7] | MIC [9]
1 to 10 µg/mL: MIC [6] | MIC [10]
